Key:
[1] = system: ABCA1 mutant-transduced Tet2 deficient BM cells; assay: [3H]-thymidine proliferation assay in ex vivo BM liquid culture; assay type: cell-based, mouse; conditions: FIG. 5E
Excerpt: FIG. 5. Cholesterol accumulation couples ABCA1 invalidation and Tet2 deficiency to IL-3 receptor β signaling hypersensitivity. (A-D) Quantification of BODIPY staining by flow cytometry expressed as mean fluorescence intensity (MFI) as a surrogate of cellular cholesterol neutral lipid per cell in BM hematopoietic stem (A and C) and progenitor (B and D) cells (i.e, LSKs, MEPs, CMPs and GMPs) of recipient mice transplanted with Mx1-Cre^+, Mx1-Cre^+ Abca1^fl/fl, MX1-Cre^+Tet2^fl/fl and Mx1-Cre^+Tet2^fl/flAbca1^fl/fl BM (A and B) or control and Mx1-Cre^+Tet2^fl/fl BM expressing empty, ABCA1-WT or ABCA1 mutants (C and D). (E) Expression of mRNA was normalized to m36B4. mRNA levels were expressed as percentage over WT whole BM cells. Proliferation rates were determined after 2 h [^3H]-thymidine pulse labeling in BM cells from empty, ABCA1-WT and ABCA1 mutants-transduced animals on a Tet2 deficient background that were grown for 72 h in liquid culture in the presence or absence of 6 ng/mL IL-3 and 2 ng/mL GM-CSF and the indicated chemical compounds.
FIG. 6. […] (A) Proliferation rates were determined after 2 h [^3H]-thymidine pulse labeling in BM cells from empty, ABCA1-WT and ABCA1 mutants-transduced animals on a Tet2 deficient background that were grown for 72 h in liquid culture in the presence or absence of 50 μg/mL PEG-HDL. […]

[2] = system: ABCA1 mutant-transduced Tet2 deficient BM cells; assay: cell viability of treated ex vivo BM cultures; assay type: cell-based, mouse; conditions: same treated BM cultures; data not shown
Procedure: Briefly, femurs were flushed with ice-cold PBS and centrifugated for 5 min at 1,000 rpm to extract BM cells. After red blood cell lysis, over 90% of BM cells were CD45-positive cells of hematopoietic origin (Westerterp et al., 2012). Primary BM cells were resuspended in IMDM (Gibco) containing 10% FCS (STEMCELL Technologies) and cultured for 1 h in tissue culture flasks to remove adherent cells, including macrophages. The transduction rate of control, ABCA1-WT and ABCA 1-mutant lentiviral particles was determined after BM transplantation as described above. Suspended cells were then normalized to the same concentration and cultured for 72 h in the presence of 6 ng/mL IL-3 and 2 ng/mL GM-CSF (R&D Systems). In some experiments, the cyclodextrin (Sigma) was used at the final concentration of 5 mM, tempol (EMD Millipore) at 4 mM and anti-IL3Rbeta AF549 antibody (R&D Systems) at 50 μg/mL.

Row | Compound | basal proliferation and IL-3/GM-CSF hypersensitivity of ABCA1 mutants-transduced Tet2 deficient BM cells ([1]; tempol 4 mM, 72 h culture with or without 6 ng/mL IL-3 and 2 ng/mL GM-CSF) | proliferation of ABCA1 mutant-transduced Tet2 deficient BM cells ([1]; 72 h culture in presence or absence of IL-3 and GM-CSF, cyclodextrin 5 mM, antibody 50 μg/mL, effect similar to ABCA1-WT overexpression) | cell viability [2]
1 | CC1(C)CC(O)CC(C)(C)N1[O] [tempol] | prevented the basal proliferation and IL-3/GM-CSF hypersensitivity | – | –
2 | cyclodextrin | – | prevented the proliferation | without affecting cell viability

Reference: US20220411880A1, “METHODS AND COMPOSITIONS FOR DIAGNOSING AND TREATING CHRONIC MYELOMONOCYTIC LEUKEMIA (CMML)” (INSERM (INSTITUT NATIONAL DE LA SANTÉET DE LA RECHERCHE …, priority 2019, published 2022)
